Results taken from patent US8486916B2, “Medicine, food and drink or feed containing sphingomyelin” (Megmilk Snow Brand Co., Ltd., priority 2005, dated 2013).
Read-outs that look alike come from different tables or passages of the source.

Assays:
SD rats = test: Water maze experiment (learning ability); type: in vivo; conditions: 2.0% in feed for 10 days
Description: The sphingomyelin raw material obtained in Example 1 was used to conduct a water maze experiment for the purpose of examining the influence of orally taken sphingomyelin on learned behavior. […] First, 8-week-old male SD rats (Charles River Laboratories, Japan) were preliminarily raised for 7 days using a standard diet (AIN-93G) and then divided into 3 groups each containing 6 individuals. In this context, the rats were raised under conditions involving room temperature of 24° C., humidity of 60%, and light-dark (12 hour/12 hour) control and were allowed to freely take deionized water. [table] Subsequently, a “water filled multiple T-maze” was prepared by arranging combined T-mazes with 11 choice points in a water tank of 120 cm long, 120 cm wide, and 40 cm deep. A water maze experiment was conducted at a water temperature of 23 to 24° C. according to the method of Ishizaki (Ishizaki, Exp. Anim., vol. 27, pp. 9-12, 1978). First, the rats were separately acclimatized by 5 trials in a straight waterway a day before the test. Next, each rat was given 3 trials in the water maze for 4 consecutive days of the test. The length of time taken to swim from the start to the goal of the water maze was measured.

[1] = tested on: phototoxic pigmentation caused by treatment with 8MOP; type: in vivo, female ICR mice; conditions: for depigmentation / pigmentation grade (Table 12: +3 whitened to −3 evidently blackened): 5% sample, 50 μl once daily
Description: An anti-pigmentation effect and the degree of pigmentation (shown in Table 12) produced as a side effect were rated by four-grade evaluation (+: depigmentation effect, −: side effect). […] Moreover, no agent was applied to a control group. […] [table]

Male Wistar rats = test: Effect of preventing drunken sickness (hangover) after ethyl alcohol administration; type: in vivo; conditions: 2 mg/kg oral together with 10 ml/kg of 40 (v/v) % ethyl alcohol
Description: Male Wistar rats were preliminarily raised for 1 week. Then, the rats of 110 to 120 g in body weight were used. The rats were fasted overnight before the experiment and given neither food nor water during the experiment. The rats were divided into an alcohol single administration group (control group) and a sphingomyelin administration group. Each group contained 5 individuals. […] After administration, the rats were observed until they recovered from drunken symptoms.

[2] = tested on: plaque-forming cells against the sheep red blood cells; test: Inhibitory effect on antibody production (IgM PFC against sheep red blood cells); type: in vivo, Lewis rats; conditions: 2 mg/kg
Description: A mechanism under which sphingomyelin inhibits the onset of EAE was studied. […] The spleen was excised from each rat on the 18th day, and a single cell suspension was aseptically prepared therefrom. The red blood cells were removed by a hemolysis method. After washing with an RPMI-1640 medium, a cell suspension was prepared at a cell density of […]. The number of plaque-forming cells against the sheep red blood cells was counted according to the method of Jerne and used as the number of IgM PFC. From the results shown in Table 11, it was confirmed that sphingomyelin has inhibitory activity against antibody production.

β-Lg = test: Test on effect of blocking allergen invasion (β-Lg and anti-β-Lg IgE in blood); type: in vivo, Infant Wistar rats; conditions: for Anti-β-Lg IgE: blood 2 weeks after β-Lg; for β-Lg: blood 1 hour after β-Lg
Description: Infant Wistar rats (14 day old, body weight: around 20 g, 8 individuals, Charles River Laboratories, Japan) were divided into a control group and sphingomyelin administration groups (SPM administration groups), and all the groups were raised using artificial milk having composition closely analogous to that of rat milk. […] On the 21st day, 100 μl of a β-Lg solution (10 mg/ml) was orally administered thereto. Blood collected from the rats after 1 hour and after 2 weeks. On the other hand, a β-Lg solution and a complete Freund adjuvant were mixed for emulsification, and the emulsion was hypodermically injected to 3 locations (both sides of the back, and the hip) of a 3-month-old rabbit (Japanese white, male, manufactured by KITAYAMA LABES Co., Ltd.) to obtain anti-β-Lg serum. A β-Lg amount in the above-described blood after 1 hour was measured by a sandwich ELISA method using this antiserum as a primary antibody and a horseradish peroxidase (PO)-labeled secondary antibody. Moreover, anti-β-Lg IgE in the above-described blood after 2 weeks was measured by an ELISA method using β-Lg and a PO-labeled anti-rat IgE antibody (manufactured by Nordic).

[3] = tested on: Chinese hamster lung fibroblast cell line V79; type: cell-based
Description: The antioxidative activity of sphingomyelin was measured according to the method of Nakayama et al. (Mutation Research, vol. 281, pp. 77-80, 1992). […] Then, the antioxidative activity of sphingomyelin was determined using reduction in colony forming activity attributed to hydrogen peroxide as an index for toxicity and assessed based on the extent to which the colony forming activity recovered from such reduction by adding sphingomyelin to the cultured cells for test. The cultured cells for test were inoculated onto a plate and precultured (cell adhesion) for 2 hours. […] The cultured cells for test were incubated for 4 hours so that the cells were allowed to take up sphingomyelin, prior to hydrogen peroxide. Next, the cells were reacted for 30 minutes by the addition of hydrogen peroxide and damaged. After reaction, the cells were cultured for 5 days in a medium containing serum. In this context, the concentration of hydrogen peroxide was set to 60 μM at which colony forming activity was decreased to a few % to approximately 40%. […] In this context, higher cell viability indicates the higher antioxidative activity of the added sphingomyelin.

[4] = tested on: enteropathogenic E. coli O-157; test: Test I on prevention of enteropathogenic E. coli O-157 infection; type: in vivo; conditions: BALB/c germ-free mice, 5 mg/day oral
Description: Test I on prevention of enteropathogenic E. coli O-157 infection
The intake of sphingomyelin was 5 mg/day. On the 3rd day from the start of taking, the mice were infected with enteropathogenic E. coli O-157 by oral administration at a dose of 8.5×10^6 cfu/mouse. After infection, the mice were also allowed to orally take sphingomyelin on a daily basis. […] The survival rate of the […] depending on the number of days after the administration of enteropathogenic E. coli O-157 is shown in Table 7. As is evident from the results of Table 7, the survival rate of the germ-free mice was enhanced by the administration of sphingomyelin.

Substance: sphingomyelin
- Length of time taken to swim to goal (SD rats; 1st day): 33 ± 10 s
- Length of time taken to swim to goal (SD rats; 2nd day): 25 ± 6 s
- Length of time taken to swim to goal (SD rats; 3rd day): 18 ± 5 s
- Length of time taken to swim to goal (SD rats; 4th day): 17 ± 6 s
- depigmentation / pigmentation grade (Table 12: +3 whitened to −3 evidently blackened) ([1]; application period 1 week): 0.4
- depigmentation / pigmentation grade (Table 12: +3 whitened to −3 evidently blackened) ([1]; application period 2 weeks): 0.8
- depigmentation / pigmentation grade (Table 12: +3 whitened to −3 evidently blackened) ([1]; application period 3 weeks): 1.2
- depigmentation / pigmentation grade (Table 12: +3 whitened to −3 evidently blackened) ([1]; application period 4 weeks): 1.1
- depigmentation / pigmentation grade (Table 12: +3 whitened to −3 evidently blackened) ([1]; application period 5 weeks): 0.9
- depigmentation / pigmentation grade (Table 12: +3 whitened to −3 evidently blackened) ([1]; application period 6 weeks): 0.3
- depigmentation / pigmentation grade (Table 12: +3 whitened to −3 evidently blackened) ([1]; application period 7 weeks): 0
- depigmentation / pigmentation grade (Table 12: +3 whitened to −3 evidently blackened) ([1]; application period 8 weeks): 0
- side effect (pigmentation) on application ([1]; mouse, in vivo): no side effect
- symptoms after administration (Male Wistar rats): only staggering gait
- time to recover from drunken symptoms (Male Wistar rats; control 5 hours): ≤ 1 h
- Average IgM/10^3 spl with respect to saline-administered control group defined as 100% [2]: 20%
- Average IgM/10^3 spl ([2]; spleen cells on the 18th day, saline 138): 27
- Anti-β-Lg IgE (β-Lg; 0.05 mg/kg/day oral): 498.2 ± 156.8 ng/mL
- β-Lg (β-Lg; 0.05 mg/kg/day oral): 38.6 ± 14.7 ng/mL
- Anti-β-Lg IgE (β-Lg; 0.1 mg/kg/day oral): 190.6 ± 77.8 ng/mL
- β-Lg (β-Lg; 0.1 mg/kg/day oral): 13.4 ± 6.6 ng/mL
- Anti-β-Lg IgE (β-Lg; 5.0 mg/kg/day oral): 165.4 ± 65.9 ng/mL
- β-Lg (β-Lg; 5.0 mg/kg/day oral): 5.6 ± 3.8 ng/mL
- own toxicity (colony forming activity) [3]: no reduction in colony forming activity
- Survival rate ([4]; 0 days after administration of E. coli): 100%
- Survival rate ([4]; 2 days after administration of E. coli): 100%
- Survival rate ([4]; 4 days after administration of E. coli): 100%
- Survival rate ([4]; 6 days after administration of E. coli): 80%
- Survival rate ([4]; 8 days after administration of E. coli): 70%
